Results published in patent US9920049B2 (priority 2014, dated 2018).

tested on: HBsAg; assay: HBsAg assay (CLIA of secreted HBsAg in HepG2.2.15 culture supernatant); type: cell-based, HBV; details: Hepatitis B virus
Description: HepG2.2.15 cells (Acs et al. Proc Natl Acad Sci USA, 84, (1987), 4641-4), a constitutively HBV-expressing cell line were cultured in DMEM+Glutamax-I medium (Invitrogen, Carlsbad, Calif., USA), supplemented with 10% fetal bovine serum (Invitrogen) and G418 (Invitrogen) at a final concentration of 200 mg/L and maintained in 5% CO2 at 37° C.
HepG2.2.15 cells were seeded in duplicate into white, 96-well plates at 1.5×10^4 cells/well. The cells were treated with a three-fold serial dilution series of the compounds in DMSO. The final DMSO concentration in all wells was 1% and DMSO was used as no drug control.
The HBsAg chemiluminescence immunoassay (CLIA) kit (Autobio Diagnostics Co., Zhengzhou, China, Catalog number: CL0310-2) was used to measure the levels of secreted HBV antigens semi-quantitatively. For the detection 50 μL/well culture supernatant was used and HBsAg was quantified using HBsAg chemiluminescence immunoassay (CLIA) kit (Autobio Diagnostics Co., Zhengzhou, China, Catalog number: CL0310-2), 50 μl of the supernatant was transferred to the CLIA assay plate and 50 μL of enzyme conjugate reagent was added into each well. The plates were sealed and gently agitated for 1 hour at room temperature. The supernatant-enzyme-mixture was discarded and wells were washed 6 times with 300 μL of PBS. The residual liquid was removed by plating the CLIA plate right side down on absorbent tissue paper. 25 μL of substrates A and B were added to each well. Luminance was measured using a luminometer (Mithras LB 940 Multimode Microplate Reader) after 10 minutes incubation. Dose-response curves were generated and the IC50 value was extrapolated by using the E-WorkBook Suite (ID Business Solutions Ltd., Guildford, UK).
The compounds of the present invention were tested for their capacity to inhibit HBsAg as described herein.

SMILES | IC50 [µM]
CCC1Cc2cc(OCc3ccccc3)c(OC)cc2-c2cc(=O)c(C(=O)NCc3ccccc3)cn21 (centres unmarked) [Example 1, N-benzyl-9-benzyloxy-6-ethyl-10-methoxy-2-oxo-6,7-dihydrobenzo[a]quinolizine-3-carboxamide] | 26.2
CCC1Cc2cc(OCc3ccccc3)c(OC)cc2-c2cc(=O)c(C(=O)NC(C)COC)cn21 (centres unmarked) [Example 3, 9-benzyloxy-6-ethyl-10-methoxy-N-(2-methoxy-1-methyl-ethyl)-2-oxo-6,7-dihydrobenzo[a]quinolizine-3-carboxamide] | 31
CCC1Cc2cc(OCc3ccccc3)c(OC)cc2-c2cc(=O)c(C(=O)NS(C)(=O)=O)cn21 (centres unmarked) [Example 4, 9-benzyloxy-6-ethyl-10-methoxy-N-methylsulfonyl-2-oxo-6,7-dihydrobenzo[a]quinolizine-3-carboxamide] | 0.92
CCCNC(=O)c1cn2c(cc1=O)-c1cc(OC)c(OCc3ccccc3)cc1CC2CC (centres unmarked) [Example 5, 9-benzyloxy-6-ethyl-10-methoxy-2-oxo-N-propyl-6,7-dihydrobenzo[a]quinolizine-3-carboxamide] | 5.6
CCC1Cc2cc(OCc3ccccc3)c(OC)cc2-c2cc(=O)c(C(=O)NC(C)CO)cn21 (centres unmarked) [Example 7, 9-benzyloxy-6-ethyl-N-(2-hydroxy-1-methyl-ethyl)-10-methoxy-2-oxo-6,7-dihydrobenzo[a]quinolizine-3-carboxamide] | 7.8
CCC1Cc2cc(OCc3ccccc3)c(OC)cc2-c2cc(=O)c(C(=O)NCCN(C)C)cn21 (centres unmarked) [Example 8] | 33.7
CCC(C)NC(=O)c1cn2c(cc1=O)-c1cc(OC)c(OCc3ccccc3)cc1CC2CC (centres unmarked) [Example 9, 9-benzyloxy-6-ethyl-10-methoxy-2-oxo-N-sec-butyl-6,7-dihydrobenzo[a]quinolizine-3-carboxamide] | 5.4
CCC1Cc2cc(OCc3ccccc3)c(OC)cc2-c2cc(=O)c(C(=O)NO)cn21 (centres unmarked) [Example 10, 9-benzyloxy-6-ethyl-10-methoxy-2-oxo-6,7-dihydrobenzo[a]quinolizine-3-carbohydroxamic Acid] | 20.3
CCC1Cc2cc(OCc3ccccc3)c(OC)cc2-c2cc(=O)c(C(=O)NC(C)CN(C)C)cn21 (centres unmarked) [Example 11, 9-benzyloxy-N-[2-(dimethylamino)-1-methyl-ethyl]-6-ethyl-10-methoxy-2-oxo-6,7-dihydrobenzo[a]quinolizine-3-carboxamide] | 23.9
CCC1Cc2cc(OCCCOC)c(OC)cc2-c2cc(=O)c(C(=O)N3CCOC(C(=O)O)C3)cn21 (centres unmarked) [Example 13, 4-[6-ethyl-10-methoxy-9-(3-methoxypropoxy)-2-oxo-6,7-dihydrobenzo[a]quinolizine-3-carbonyl]morpholine-2-carboxylic Acid] | 36.6
CCC1Cc2cc(OCCCOC)c(OC)cc2-c2cc(=O)c(C(=O)Nc3nnn[nH]3)cn21 (centres unmarked) [Example 14, 6-ethyl-10-methoxy-9-(3-methoxypropoxy)-2-oxo-N-(1H-tetrazol-5-yl)-6,7-dihydrobenzo[a]quinolizine-3-carboxamide] | 1.1
CCC1Cc2cc(OCCCOC)c(OC)cc2-c2cc(=O)c(C(=O)NCc3ccccc3)cn21 (centres unmarked) [Example 15, N-benzyl-6-ethyl-10-methoxy-9-(3-methoxypropoxy)-2-oxo-6,7-dihydrobenzo[a]quinolizine-3-carboxamide] | 26.7
CCC1Cc2cc(OCCCOC)c(OC)cc2-c2cc(=O)c(C(=O)NC(C)COC)cn21 (centres unmarked) [Example 16, 6-ethyl-10-methoxy-N-(2-methoxy-1-methyl-ethyl)-9-(3-methoxypropoxy)-2-oxo-6,7-dihydrobenzo[a]quinolizine-3-carboxamide] | 18.4
CCOc1cc2c(cc1OC)-c1cc(=O)c(C(=O)NC(C)COC)cn1C(CC)C2 (centres unmarked) [Example 17, 9-ethoxy-6-ethyl-10-methoxy-N-(2-methoxy-1-methyl-ethyl)-2-oxo-6,7-dihydrobenzo[a]quinolizine-3-carboxamide] | 2.2
CCC1Cc2cc(OCC(C)C)c(OC)cc2-c2cc(=O)c(C(=O)NC(C)COC)cn21 (centres unmarked) [Example 18, 6-ethyl-9-isobutoxy-10-methoxy-N-(2-methoxy-1-methyl-ethyl)-2-oxo-6,7-dihydrobenzo[a]quinolizine-3-carboxamide] | 4.9
CCC1Cc2cc(OCC3CC3)c(OC)cc2-c2cc(=O)c(C(=O)NC(C)COC)cn21 (centres unmarked) [Example 19, 9-(cyclopropylmethoxy)-6-ethyl-10-methoxy-N-(2-methoxy-1-methyl-ethyl)-2-oxo-6,7-dihydrobenzo[a]quinolizine-3-carboxamide] | 8

SMILES | IC50 [µM]
CCC1Cc2cc(OCCCOC)c(OC)cc2-c2cc(=O)c(CO)cn21 (centres unmarked) [Example 20, 6-ethyl-3-(hydroxymethyl)-10-methoxy-9-(3-methoxy-propoxy)-6,7-dihydrobenzo[a]quinolizin-2-one] | 22.3
CCC1Cc2cc(OCCCOC)c(OC)cc2-c2cc(=O)c(CN3CCOCC3C(=O)O)cn21 (centres unmarked) [Example 21, 4-[[6-ethyl-10-methoxy-9-(3-methoxypropoxy)-2-oxo-6,7-dihydrobenzo[a]quinolizin-3-yl]methyl]morpholine-3-carboxylic Acid] | 19.4
CCC1Cc2cc(OCCCOC)c(OC)cc2-c2cc(=O)c(CN3CCCCC3C(=O)O)cn21 (centres unmarked) [Example 22, 1-[[6-ethyl-10-methoxy-9-(3-methoxypropoxy)-2-oxo-6,7-dihydrobenzo[a]quinolizin-3-yl]methyl]piperidine-2-carboxylic Acid] | 43.2
CCC1Cc2cc(OCCCOC)c(OC)cc2-c2cc(=O)c(CN3CCCC3C(=O)O)cn21 (centres unmarked) [Example 23, 1-[[6-ethyl-10-methoxy-9-(3-methoxypropoxy)-2-oxo-6,7-dihydrobenzo[a]quinolizin-3-yl]methyl]pyrrolidine-2-carboxylic Acid] | 17.3
CCC1Cc2cc(OCCCOC)c(OC)cc2-c2cc(=O)c(CN3CCCCC3)cn21 (centres unmarked) [Example 24, 6-ethyl-10-methoxy-9-(3-methoxypropoxy)-3-(1-piperidylmethyl)-6,7-dihydrobenzo[a]quinolizin-2-one] | 12.6
CCC1Cc2cc(OCCCOC)c(OC)cc2-c2cc(=O)c(CN3CCCC3)cn21 (centres unmarked) [Example 25, 6-ethyl-10-methoxy-9-(3-methoxypropoxy)-3-(pyrrolidin-1-ylmethyl)-6,7-dihydrobenzo[a]quinolizin-2-one] | 16.4
CCC1Cc2cc(OCCCOC)c(OC)cc2-c2cc(=O)c(CN3CCOCC3)cn21 (centres unmarked) [Example 26, 6-ethyl-10-methoxy-9-(3-methoxypropoxy)-3-(morpholinomethyl)-6,7-dihydrobenzo[a]quinolizin-2-one] | 16.2
CCC1Cc2cc(OCCCOC)c(OC)cc2-c2cc(=O)c(CNC)cn21 (centres unmarked) [Example 27, 6-ethyl-10-methoxy-9-(3-methoxypropoxy)-3-(methylaminomethyl)-6,7-dihydrobenzo[a]quinolizin-2-one] | 15.8
CCC1Cc2cc(OCCCOC)c(OC)cc2-c2cc(=O)c(CN(C)C)cn21 (centres unmarked) [Example 28, 3-[(dimethylamino)methyl]-6-ethyl-10-methoxy-9-(3-methoxypropoxy)-6,7-dihydrobenzo[a]quinolizin-2-one] | 3.7
CCC1Cc2cc(OCCCOC)c(OC)cc2-c2cc(=O)c(COC)cn21 (centres unmarked) [Example 29, 6-ethyl-10-methoxy-3-(methoxymethyl)-9-(3-methoxypropoxy)-6,7-dihydrobenzo[a]quinolizin-2-one] | 1.5
CCC1Cc2cc(OCCCOC)c(OC)cc2-c2cc(=O)c(CN(C)CC(=O)O)cn21 (centres unmarked) [Example 30, 2-[[6-ethyl-10-methoxy-9-(3-methoxypropoxy)-2-oxo-6,7-dihydrobenzo[a]quinolizin-3-yl]methyl-methyl-amino]acetic Acid] | 16.9
CC[C@@H]1Cc2cc(OC)c(OC)cc2-c2cc(=O)c(C(=O)Nc3nnn[nH]3)cn21 [Example 31, (6R)-6-ethyl-9,10-dimethoxy-2-oxo-N-(1H-tetrazol-5-yl)-6,7-dihydrobenzo[a]quinolizine-3-carboxamide] | 44.1
COCCCOc1cc2c(cc1OC)-c1cc(=O)c(C(=O)Nc3nnn[nH]3)cn1C(C(C)(C)C)C2 (centres unmarked) [Example 32, 6-tert-butyl-10-methoxy-9-(3-methoxypropoxy)-2-oxo-N-(1H-tetrazol-5-yl)-6,7-dihydrobenzo[a]quinolizine-3-carboxamide] | 0.38
COCCCOc1cc2c(cc1OC)-c1cc(=O)c(C(=O)Nc3nnn[nH]3)cn1C(C1CCC1)C2 (centres unmarked) [Example 33, 6-cyclobutyl-10-methoxy-9-(3-methoxypropoxy)-2-oxo-N-(1H-tetrazol-5-yl)-6,7-dihydrobenzo[a]quinolizine-3-carboxamide] | 1
COCCOc1cc(Cl)c2c(c1)CC(C(C)C)n1cc(C(=O)Nc3nnn[nH]3)c(=O)cc1-2 (centres unmarked) [Example 34, 11-chloro-6-isopropyl-9-(2-methoxyethoxy)-2-oxo-N-(1H-tetrazol-5-yl)-6,7-dihydrobenzo[a]quinolizine-3-carboxamide] | 18.3
COc1cc2c(cc1OC)-c1cc(=O)c(C(=O)Nc3nnn[nH]3)cn1C(CC(F)(F)F)C2 (centres unmarked) [Example 35, 9,10-dimethoxy-2-oxo-N-(1H-tetrazol-5-yl)-6-(2,2,2-trifluoroethyl)-6,7-dihydrobenzo[a]quinolizine-3-carboxamide] | 12.9
